US20120149645A1, “COMPOSITIONS AND MODULATION OF MYOCYTE ENHANCER FACTOR 2 (MEF2)” (EMORY UNIVERSITY, priority 2010, published 2012)

B1: MEF2D1-131: dominant-negative form of MEF2D which interferes with nuclear MEF2 function (protein, UniProt Q63943 1-131, looked up, fragment)
chain: MGRKKIQIQRITDERNRQVTFTKRKFGLMKKAYELSVLCDCEIALIIFNHSNKLFQYASTDMDKVLLKYTEYNEPHESRTNADIIETLRKKGFNGCDSPEPDGEDSLEQSPLLEDKYRRASEELDGLFRRY
B2: Mt2D: Mitochondria-targeting active MEF2D: mouse MEF2D 1-493aa with added mitochondria-targeting signal, lacking nuclear localization signals (protein, UniProt Q63943 1-493, looked up, fragment)
chain: MGRKKIQIQRITDERNRQVTFTKRKFGLMKKAYELSVLCDCEIALIIFNHSNKLFQYASTDMDKVLLKYTEYNEPHESRTNADIIETLRKKGFNGCDSPEPDGEDSLEQSPLLEDKYRRASEELDGLFRRYGSSVPAPNFAMPVTVPVSNQSSMQFSNPSSSLVTPSLVTSSLTDPRLLSPQQPALQRNSVSPGLPQRPASAGAMLGGDLNSANGACPSPVGNGYVSARASPGLLPVANGNSLNKVIPAKSPPPPTHNTQLGAPSRKPDLRVITSQGGKGLMHHLTEDHLDLNNAQRLGVSQSTHSLTTPVVSVATPSLLSQGLPFSSMPTAYNTDYQLPSAELSSLPAFSSPAGLALGNVTAWQQPQPPQQPQPPQPPQSQPQPPQPQPQQPPQQQPHLVPVSLSNLIPGSPLPHVGAALTVTTHPHISIKSEPVSPSRERSPAPPPPAVFPAARPEPGEGLSSPAGGSYETGDRDDGRGDFGPTLGLLRPA
modifications: mitochondria-targeting signal added

Experiments:
[1] = test system: MEF2D binding to ND6; experiment: ChIP assay of MEF2D binding to the ND6 MEF2 site in purified mitochondria; type: cell-based, mouse; details: for binding of mitochondrial MEF2D to the ND6 MEF2 site: SN4741 cells, MPP+ 25 μM or rotenone 100 nM for 12 hours
Source text: (§1) (A) Mitochondria-targeting MEF2D (Mt2D) and mitochondria-targeting dominant-negative MEF2D (Mt2Ddn), which lacks the transactivation domain (TAD). […] Control indicates the control vector group. (C) Effects of Mt2D or Mt2Ddn on ND6 expression in SN4741 cells. Over-expression of Mt2Ddn in SN4741 cells reduced ND6 but not PPAR-γ coactivator 1 (PGC1) expression by western blotting (n=4, **p<0.01). Control indicates the control vector group. (D) Effects of over-expression of Mt2D or Mt2Ddn on mRNA levels of mitochondria encoded genes. […] Control indicates the control vector group. (E) Effects of Mt2D or Mt2Ddn on mtDNA L-strand transcription initiation in vitro (n=3; **P<0.01). A human mtDNA fragment containing mitochondrial L-strand promoter (LSP) and ND6 gene was used in the in vitro transcription assay. […] (F) Effects of Mt2D or Mt2Ddn on mtDNA de novo transcription in vivo (n=3; **P<0.01). Control (−) is without primers. Control (+) indicates the control vector group.
(§2) (A) Reduced binding of MEF2D to ND6 after neurotoxin treatment. SN4741 cells were treated with MPP+ (25 μM) or rotenone (Rot, 100 nM) for 12 hours. […] Control indicates untreated. […] Control indicates untreated. (C) Immunocytochemical analysis of mitochondrial MEF2D after MPP+ and rotenone treatment. SN4741 cells treated as described in (A) were stained (scale bar, 10 μm). […] Experiments were repeated four times. Control indicates untreated. […] SN4741 cells were treated with MPP+ after infection with the control, Mt2Ddn or Mt2DVP16 or MtND6 lentiviruses for 24 hours (upper graph: different doses of MPP+ for 24 hours; lower graph: 5 μM of MPP+ for different times). Cell viability was measured by WST-1 assay (n=4; *p<0.05; **P<0.01). Control indicates the control vector group.
Andres et al., J Biol Chem, 1995, 270:23246-23249. Moreover, this putative MEF2 binding site is conserved among several species. To test whether MEF2D binds to this putative MEF2 site, electronic mobility shift assay (EMSA) was performed. N-terminal MEF2D formed a complex with the labeled probe containing the ND6 MEF2 site. […] To corroborate this finding, a chromatin immunoprecipitation (ChIP) assay was carried out using highly purified mitochondria. […] ND6 but not ND2 based primers could amplify the bound sequence (FIG. 3C). Sequence analysis of the DNA bound by MEF2D after amplification confirmed the presence of the ND6 MEF2 site (FIG. 3D).

[2] = test system: ND6 mRNA; experiment: Real-time PCR of mitochondria-encoded mRNA levels in SN4741 cells; type: cell-based, mouse; details: SN4741 cells; relatively short exposure to toxicant
Source text: as §1

[3] = test system: MEF2D and ND6 proteins; experiment: Western blotting of MEF2D, ND6 and PGC1 protein levels in SN4741 cells; type: cell-based, mouse; details: for level of ND6 protein / level of mitochondrial MEF2D protein / level of MEF2D in the nucleus / level of MEF2D in whole cell: SN4741 cells; for level of ND6 protein / level of mitochondrial MEF2D protein: purified mitochondria, MPP+ 25 μM or rotenone 100 nM for 12 hours; for level of MEF2D in the nucleus / level of MEF2D in whole cell: same toxicant condition
Source text: as §1, §2
(§3) (A) Diagrams of Mt2DVP16 and MtND6. Mt2DVP16 was constructed by fusion of transactivation domain (TAD) of VP16 with DNA-binding domain of MEF2D and a mitochondria-targeting sequence (Mito). […] (C) Over-expression of Mt2DVP16 attenuated MEF2D siRNA-induced reduction of ND6 expression (n=3, **P<0.01).

[4] = test system: SN4741 cells; experiment: Immunocytochemistry, colocalization of MEF2D with MitoTracker; type: cell-based, mouse; details: SN4741 cells and primary midbrain dopamine neurons; toxicant treatment
Procedure: as §2
SN4741 cells or primary midbrain DA neurons were plated on glass slides in 24-well plates. Localizations of endogenous and exogenous MEF2D were visualized on a Zeiss LSM5 PASCAL confocal microscope. To visualize colocalization of MEF2D with the mitochondria, cells were stained with MitoTracker (Invitrogen) and anti-MEF2D (BD Bioscience) or anti-FLAG (Sigma) antibodies. Quantification of colocalization of signals was done using “Colocalization Analysis” program of software Image Pro (Media Cybernetics). Overlap coefficients of 50 cells in each group were collected. […]

[5] = test system: SN4741 cells; experiment: WST-1 cell viability assay; type: cell-based, mouse; details: SN4741 cells; different doses of MPP+ for 24 hours
Procedure: as §2
WST-1 assay was done using a kit (cat. no. 11644807001) from Roche and following procedures provided by the manufacturer. WST-1 (4-[3-(4-Iodophenyl)-2-(4-nitrophenyl)-2H-5-tetrazolio]-1,3-benzene disulfonate) is a water-soluble tetrazolium salt whose cleavage by cellular enzymes correlates with cell viability. Cells were seeded in 96-well plates and treated as indicated. Than 10 μl/well of premixed WST-1 Cell Proliferation Reagent was added, and the cells were incubated for an additional 4 hr under the same conditions. Absorbance at 450 nm was measured on a multi-well plate reader (Bio-Tek).

[6] = test system: nuclear MEF2; experiment: MEF2 luciferase reporter assay; type: cell-based; details: co-transfected with MEF2 luciferase reporter
Source text: (§4) Control indicates the group co-tranfected with control vector.
MEF2 luciferase reporter assay was done as described Wang et al., J Biol Chem, 2005, 280:16705-16713. Briefly, cells were transiently transfected with various constructs with MEF2 luciferase reporter plasmid (WT, reporter with wild type MEF2 DNA binding sites; mt, reporter with the MEF2 DNA binding sites mutated) using Lipofectimane 2000 (Invitrogen) following procedures provided by the manufacturer. A β-galactosidase expression plasmid was used to determine the efficiency in each transfection. The total amount of DNA for each transfection was kept constant by using control vectors. Cell lysates were analyzed for luciferase and β-galactosidase activity according to the manufacturer's instructions (Roche, cat. no. 11669893001).

[7] = test system: mitochondrial complex I; experiment: Mitochondrial complex protein level and activity (BN-PAGE, in-gel staining, quantitative assays); type: cell-based, mouse; details: over-expression in SN4741 cells
Source text: (§5) (A) Requirement of mitochondrial MEF2D for complex I activity. […] Control indicates the control vector group. (B) Over-expression of ND6 rescued complex I activity reduced by Mt2Ddn. Control indicates the control vector group. (C) Measurement of various complex activities. […] Control indicates the control vector group. (D) Effects of over-expression of Mt2D or Mt2Ddn on mitochondrial function. Mt2Ddn reduced cellular ATP level and elevated H2O2 production in SN4741 cells (n=4; *p<0.05; **P<0.01). Control indicates the control vector group.
(§6) Mitochondrial complex I activity was evaluated initially by blue native-polyacrylamide gel electrophoresis (BN-PAGE) and in-gel activity staining. This assay measures total complex I activity. Rotenone sensitive complex I activity and activities of other mitochondrial complexes were further measured by methods described by Antoni et al., J Biol Chem, 1998, 273:14210-14217. Briefly, parallel assays were performed to measure complex I activity at 340 nm using 2,3-dimethoxy-5-methyl-6-n-decyl-1,4-benzoquinone (DB) (50 μM) as acceptor and NADH (0.8 mM) as donor, in 50 mM Tris (pH 8.0) buffer supplemented with 5 mg/ml BSA either without or with the addition of 4 μM rotenone, which gave total and rotenone insensitive complex I activities, respectively. The difference in value between the two provided a quantified measure of the rotenone-sensitive activity. Mitochondrial membrane potential was detected using a kit (cat. no. 280002) from Stratagene following the procedures provided by the manufacturer. The fluorescent dye JC-1 (5,5′,6,6′-tetrachloro-1,1′,3,3′-tetraethylbenzimidazolyl carbocyanine iodide) stains mitochondria red in a membrane potential dependent manner. Briefly, cells were seeded in 96-well plates at 4×10^4 cells/well with 100 μl culture medium and incubated at 33° C. with 5% CO2. After treatment, 10 μl/well of premixed JC-1 staining solution was added, and the cells were incubated for an additional 30 min under the same conditions. After thorough washes, 100 μl assay buffer was added to each well. Fluorescence signal was detected with excitation and emission at 520 nm and 590 nm, respectively, on a multi-well plate reader (Bio-Tek). Cellular ATP and H202 were measured by Bioluminescent Somatic Cell ATP Assay Kit (Sigma) and Hydrogen Peroxide Assay Kit (Cayman), respectively.

[8] = test system: SN4741 cells; experiment: Mitochondrial functional assays (ATP, H2O2, membrane potential); type: cell-based, mouse; details: over-expression in SN4741 cells
Source text: as §5, §6

[9] = test system: human mtDNA fragment containing mitochondrial L-strand promoter (LSP) and ND6 gene; experiment: In vitro mtDNA L-strand transcription assay; type: biochemical
Source text: as §1

[10] = test system: SN4741 cells; experiment: Subcellular localization of over-expressed MEF2D constructs; type: cell-based, mouse; details: over-expressed in SN4741 cells
Source text: (A) Lack of mitochondrial localization by ΔN30MEF2D. […] VDAC, PARP and c-Raf are Mt, Nu and Cy markers, respectively. Control indicates the control vector group. (B) Immunocytochemistry analysis of mitochondrial localization of transfected Flag-MEF2D. […] Experiments were repeated four times. (C, D) Requirement of mtHsp70 for mitochondria-targeting of MEF2D (n=4; **p<0.01). Control indicates untreated. […]. Knocking down mouse mtHsp70 by siRNA reduced MEF2D level in purified mitochondria from SN4741 cells (C). […] MnSOD is a known mtHsp70-imported mitochondrial matrix protein.
as §3, §4
SN4741 cells or primary midbrain DA neurons were plated on glass slides in 24-well plates. Localizations of endogenous and exogenous MEF2D were visualized on a Zeiss LSM5 PASCAL confocal microscope. […] Quantification of colocalization of signals was done using “Colocalization Analysis” program of software Image Pro (Media Cybernetics). […]

[11] = construct over-expressed in SN4741 cells

Row | Molecule | binding of mitochondrial MEF2D to the ND6 MEF2 site [1] | mRNA level of ND6 [2] | level of ND6 protein [3] | level of mitochondrial MEF2D protein [3] | level of MEF2D in the nucleus [3] | level of MEF2D in whole cell [3] | colocalization of MEF2D and MitoTracker signals [4] | neuronal viability [5] | nuclear MEF2 activity (MEF2 reporter) [6] | binding of full length MEF2D to the ND6 MEF2 site [1, 11] | ND6 protein level / expression [3, 11] | mitochondrial complex I activity [7] | cellular ATP level [8] | hydrogen peroxide production by mitochondria [8] | mitochondrial membrane potential ([8]; JC-1) | level of L-strand promoter (LSP) transcripts [9] | mitochondrial localization by immunocytochemical staining (MitoTracker) [10]
1 | C=C(C)[C@H]1Cc2c(ccc3c2O[C@@H]2COc4cc(OC)c(OC)cc4[C@@H]2C3=O)O1 [rotenone] | greatly reduced | greatly reduced | decrease | decrease | not affected | not affected | preferentially reduced | – | – | – | – | – | – | – | – | – | –
2 | C[n+]1ccc(-c2ccccc2)cc1 [MPP+, 1-methyl-4-phenylpyridinium] | greatly reduced | greatly reduced | decrease | decrease | not affected | not affected | preferentially reduced | loss of neuronal viability in a dose dependent manner | – | – | – | – | – | – | – | – | –
3 | B1 | – | – | – | – | – | – | – | – | interferes with nuclear MEF2 function | – | – | – | – | – | – | – | –
4 | B2 | – | – | – | – | – | – | – | – | did not affect | modulated | did not significantly change | neither increased the protein level nor the activity | did not alter | did not alter | did not alter | increases | targeted exclusively to mitochondria
